For the experiment, the target named is T1, HDAC6 enzyme (Homo sapiens, UniProt Q9UBN7).
T1 construct: transducing full length HDAC6 gene into Sf-9 insect cells; GST; purchased SignalChem; host or cells: Sf-9 insect cells
T1 sequence (Q9UBN7 1-1215): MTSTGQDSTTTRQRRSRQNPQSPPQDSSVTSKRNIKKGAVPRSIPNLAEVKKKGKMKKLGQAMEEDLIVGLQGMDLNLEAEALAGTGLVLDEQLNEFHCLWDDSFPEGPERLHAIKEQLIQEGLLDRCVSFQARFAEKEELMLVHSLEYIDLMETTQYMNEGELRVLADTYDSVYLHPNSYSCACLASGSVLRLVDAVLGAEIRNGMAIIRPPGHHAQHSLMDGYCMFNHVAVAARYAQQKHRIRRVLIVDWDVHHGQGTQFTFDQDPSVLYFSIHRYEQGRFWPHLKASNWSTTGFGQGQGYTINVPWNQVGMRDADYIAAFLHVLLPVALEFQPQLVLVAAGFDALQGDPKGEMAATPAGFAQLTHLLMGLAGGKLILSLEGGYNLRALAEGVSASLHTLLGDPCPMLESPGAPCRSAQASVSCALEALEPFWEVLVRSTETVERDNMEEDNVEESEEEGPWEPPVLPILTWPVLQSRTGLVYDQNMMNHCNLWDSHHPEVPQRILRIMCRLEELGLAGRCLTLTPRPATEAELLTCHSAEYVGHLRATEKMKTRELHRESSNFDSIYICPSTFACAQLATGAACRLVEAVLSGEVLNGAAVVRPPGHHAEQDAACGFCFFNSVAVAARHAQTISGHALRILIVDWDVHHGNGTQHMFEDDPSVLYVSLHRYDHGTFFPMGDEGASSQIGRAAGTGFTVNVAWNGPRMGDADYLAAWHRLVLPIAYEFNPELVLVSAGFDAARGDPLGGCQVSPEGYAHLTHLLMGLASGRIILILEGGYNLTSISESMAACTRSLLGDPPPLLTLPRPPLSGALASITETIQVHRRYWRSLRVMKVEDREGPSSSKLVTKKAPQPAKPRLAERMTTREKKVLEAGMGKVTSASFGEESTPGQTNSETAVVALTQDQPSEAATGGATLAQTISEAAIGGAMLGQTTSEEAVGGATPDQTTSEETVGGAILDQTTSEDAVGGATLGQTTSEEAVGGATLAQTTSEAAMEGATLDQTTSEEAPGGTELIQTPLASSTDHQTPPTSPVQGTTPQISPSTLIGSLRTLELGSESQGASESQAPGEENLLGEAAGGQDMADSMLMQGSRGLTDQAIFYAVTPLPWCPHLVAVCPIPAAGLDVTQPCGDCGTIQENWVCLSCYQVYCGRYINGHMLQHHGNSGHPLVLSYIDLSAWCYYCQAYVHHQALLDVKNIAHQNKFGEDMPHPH
In words: HDAC6 enzyme inhibitory activity (HDAC-Glo I/II Assay kit). The following applies: read-out: HDAC6 inhibitory rate (%) (10 μM). Format: biochemical. The method, boiled down:
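Luminescent HDAC-Glo I/II readout after 20 min room-temperature reaction with substrate-developer, following 60 min compound–enzyme preincubation. Enzyme: full-length HDAC6 from Sf-9 cells, GST-purified; buffer 24 mM Tris-HCl pH 7.5, 0.01% Tween-20, glutathione, salts. Wells lacking enzyme define 100% inhibition.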

Where [1] appears, read: 10 μM, wells without enzyme = 100% inhibition.

Read-outs that look alike come from different tables or passages of the source.

`O=C1c2cc(-c3nnc(C(F)F)o3)cnc2CN1c1ccc(F)cc1Br` [Example 406, 6-(2-bromo-4-fluorophenyl)-3-(5-(difluoromethyl)-1,3,4-oxadiazol-2-yl)-6,7-dihydro-5H-pyrrolo[3,4-b]pyridin-5-one]: the inhibition at 10 µM under setting [1] was 100%. Still for that read-out and setting: next, `N#Cc1cccc(-c2cc(F)ccc2N2Cc3ncc(-c4nnc(C(F)F)o4)cc3C2=O)c1` [Example 407, 2′-(3-(5-(difluoro-methyl)-1,3,4-oxadiazol-2-yl)-5-oxo-5,7-dihydro-6H-pyrrolo[3,4-b]pyridin-6-yl)-5′-fluoro-biphenyl-3-carbonitrile]: 99%; `O=C1c2cc(-c3nnc(C(F)F)o3)cnc2CN1c1ccc(F)cc1-c1cnn(C(F)F)c1` [Example 408, 3-(5-(difluoro-methyl)-1,3,4-oxadiazol-2-yl)-6-(2-(1-(difluoro-methyl)-1H-pyrazol-4-yl)-4-fluorophenyl)-6,7-dihydro-5H-pyrrolo[3,4-b] pyridin-5-one]: 99%. For `O=C1c2cc(-c3nnc(C(F)F)o3)cnc2CN1c1ccc(F)cc1-c1cccc(F)c1` [Example 409, 6-(3′,5-difluoro-biphenyl-2-yl)-3-(5-(difluoro-methyl)-1,3,4-oxadiazol-2-yl)-6,7-dihydro-5H-pyrrolo [3,4-b]pyridin-5-one], the inhibition at 10 µM under setting [1] came to 99%.

For the compound `O=C1c2cc(-c3nnc(C(F)F)o3)cnc2CN1c1ccc(F)cc1-c1cccc(Cl)c1` [Example 410, 6-(3′-chloro-5-fluoro-biphenyl-2-yl)-3-(5-(difluoro-methyl)-1,3,4-oxadiazol-2-yl)-6,7-dihydro-5H-pyrrolo [3,4-b]pyridin-5-one], the inhibition at 10 µM under setting [1] was 101%. Same read-out and setting: next, `Cn1cc(-c2cc(F)ccc2N2Cc3ncc(-c4nnc(C(F)F)o4)cc3C2=O)cn1` [Example 411, 3-(5-(difluoro-methyl)-1,3,4-oxadiazol-2-yl)-6-(4-fluoro-2-(1-methyl-1H-pyrazol-4-yl)phenyl)-6,7-dihydro-5H-pyrrolo[3,4-b] pyridin-5-one]: 100%. Same read-out and setting: next, `Cn1nc(C(F)(F)F)cc1-c1cc(F)ccc1N1Cc2ncc(-c3nnc(C(F)F)o3)cc2C1=O` [Example 412, 3-(5-(difluoro-methyl)-1,3,4-oxadiazol-2-yl)-6-(4-fluoro-2-(1-methyl-3-(trifluoro-methyl)-1H-pyrazol-5-yl)phenyl)-6,7-dihydro-5H-pyrrolo[3,4-b] pyridin-5-one]: 100%; `CC(C)(C)OC(=O)N[C@H]1COCC[C@H]1N1Cc2ccc(-c3nnc(C(F)F)o3)cc2C1=O` [Example 413, tert-butyl ((3R,4R)-4-(6-(5-(difluoro-methyl)-1,3,4-oxadiazol-2-yl)-1-oxo-1,3-dihydro-2H-isoindol-2-yl)tetrahydro-2H-pyran-3-yl) carbamate]: 98%.

Consider `N[C@H]1COCC[C@H]1N1Cc2ccc(-c3nnc(C(F)F)o3)cc2C1=O` [Example 414, 2-((3R,4R)-3-aminotetra-hydro-2H-pyran-4-yl)-6-(5-(difluoro-methyl)-1,3,4-oxadiazol-2-yl) isoindolin-1-one], for which the inhibition at 10 µM under setting [1] was found to be 87%. `O=C1c2cc(-c3nnc(C(F)F)o3)ccc2CN1[C@@H]1CCOC[C@@H]1NCC(F)(F)F` [Example 415, 6-(5-(difluoro-methyl)-1,3,4-oxadiazol-2-yl)-2-((3R,4R)-3-((2,2,2-trifluoro-ethyl)amino)tetrahydro-2H-pyran-4-yl) isoindolin-1-one]: under setting [1], the inhibition at 10 µM is 101%. Consider `O=C1c2cc(-c3nnc(C(F)F)o3)ccc2CN1[C@@H]1CCOC[C@@H]1NCC(F)(F)C(F)(F)F` [Example 416, 6-(5-(difluoro-methyl)-1,3,4-oxadiazol-2-yl)-2-((3R,4R)-3-((2,2,3,3,3-pentafluoro-propyl)amino)tetrahydro-2H-pyran-4-yl) isoindolin-1-one], for which the inhibition at 10 µM under setting [1] is 101%. Consider `O=C1c2cc(-c3nnc(C(F)F)o3)ccc2CN1[C@@H]1CCOC[C@@H]1NCC(F)(F)C(F)(F)C(F)(F)F` [Example 417, 6-(5-(difluoro-methyl)-1,3,4-oxadiazol-2-yl)-2-((3R,4R)-3-((2,2,3,3,4,4,4-heptafluoro-butyl)amino)tetrahydro-2H-pyran-4-yl) isoindolin-1-one], for which the inhibition at 10 µM amounted to 101%. In the case of `O=C1c2cc(-c3nnc(C(F)F)o3)ccc2CN1[C@@H]1CCOC[C@@H]1NC(=O)C(F)(F)C(F)(F)F` [Example 418, N-((3R,4R)-4-(6-(5-(difluoro-methyl)-1,3,4-oxadiazol-2-yl)-1-oxo-1,3-dihydro-2H-isoindol-2-yl)tetrahydro-2H-pyran-3-yl)-2,2,3,3,3-pentafluoro-propanamide], the inhibition at 10 µM under setting [1] was determined as 99%. Still for that read-out and setting: next, `Cn1ccc(CN2Cc3ncc(-c4nnc(C(F)F)o4)cc3C2=O)n1` [Example 419, 3-(5-(difluoro-methyl)-1,3,4-oxadiazol-2-yl)-6-((1-methyl-1H-pyrazol-3-yl)methyl)-6,7-dihydro-5H-pyrrolo[3,4-b] pyridin-5-one]: 99%; `O=C1c2cc(-c3nnc(C(F)F)o3)cc(F)c2CN1C[C@H]1CC(F)(F)CN1S(=O)(=O)c1cccc(F)c1` [Example 420, 2-(((2R)-4,4-difluoro-1-((3-fluoro-phenyl)sulfonyl)pyrrolidin-2-yl)methyl)-6-(5-(difluoro-methyl)-1,3,4-oxadiazol-2-yl)-4-fluoroiso-indolin-1-one]: 99%; `O=C1c2cc(-c3nnc(C(F)F)o3)cc(F)c2CN1C[C@H]1CC(F)(F)CN1S(=O)(=O)CC(F)(F)F` [Example 421, 6-(5-(difluoro-methyl)-1,3,4-oxadiazol-2-yl)-2-(((2R)-4,4-difluoro-1-((2,2,2-trifluoro-ethyl)sulfonyl)pyrrolidin-2-yl)methyl)-4-fluoroiso-indolin-1-one]: 98%. Still for that read-out and setting: next, `O=C1c2cc(-c3nnc(C(F)F)o3)cc(F)c2CN1C[C@H]1CC(F)(F)CN1C(=O)C1CC1` [Example 422, 2-(((2R)-1-(cyclopropyl-carbonyl)-4,4-difluoro-pyrrolidin-2-yl)methyl)-6-(5-(difluoro-methyl)-1,3,4-oxadiazol-2-yl)-4-fluoroiso-indolin-1-one]: 98%.

Regarding `Cn1cc(CN2Cc3ncc(-c4nnc(C(F)F)o4)cc3C2=O)cn1` [Example 423, 3-(5-(difluoro-methyl)-1,3,4-oxadiazol-2-yl)-6-((1-methyl-1H-pyrazol-4-yl)methyl)-6,7-dihydro-5H-pyrrolo[3,4-b] pyridin-5-one], the inhibition at 10 µM under setting [1] turned out to be 99%. Still for that read-out and setting: next, `O=C1c2cc(-c3nnc(C(F)F)o3)cnc2CN1c1ccccc1-c1cnn(C(F)F)c1` [Example 424, 3-(5-(difluoro-methyl)-1,3,4-oxadiazol-2-yl)-6-(2-(1-(difluoro-methyl)-1H-pyrazol-4-yl)phenyl)-6,7-dihydro-5H-pyrrolo[3,4-b] pyridin-5-one]: 101%; `O=C1c2cc(-c3nnc(C(F)F)o3)cnc2CN1Cc1cncc(C(F)(F)F)c1` [Example 425, 3-(5-(difluoro-methyl)-1,3,4-oxadiazol-2-yl)-6-((5-(trifluoro-methyl)pyridin-3-yl)methyl)-6,7-dihydro-5H-pyrrolo [3,4-b] pyridin-5-one]: 99%. Still for that read-out and setting: to `Cn1nc(C(F)(F)F)cc1-c1c(Cl)cccc1N1Cc2ccc(-c3nnc(C(F)F)o3)cc2C1=O` [Example 426, 2-(3-chloro-2-(1-methyl-3-(trifluoro-methyl)-1H-pyrazol-5-yl)phenyl)-6-(5-(difluoro-methyl)-1,3,4-oxadiazol-2-yl) isoindolin-1-one] belongs 99%; to `O=C1c2cc(-c3nnc(C(F)F)o3)cc(F)c2CN1C[C@H]1CCCN1S(=O)(=O)c1cccc(F)c1` [Example 427, 6-(5-(difluoro-methyl)-1,3,4-oxadiazol-2-yl)-4-fluoro-2-(((2R)-1-((3-fluorophenyl)sulfonyl)pyrrolidin-2-yl)methyl) isoindolin-1-one], 100%.

The record behind these values is patent US10435399B2, “HDAC6 inhibitory heterocyclic compound” (TAKEDA PHARMACEUTICAL COMPANY LIMITED, priority 2017, dated 2019).
